Values joined by “and” are separate entries in the source; they are usually repeats but may differ in a detail not shown here. Identical values can stand only once.
What was measured:
[1] = test system: patients with Alagille syndrome (ALGS); experiment: ASSERT: global impression of change (CGIC, CaGIC, PGIC) and exit survey; type: in vivo, human; settings: week 24
Experimental: FIG. 27 is a table showing global impressions of change (GIC) over time. GIC items are assessed on a 7-point scale: 1=very much better; 2=much/moderately better; 3=a little better; 4=no change; 5=a little worse; 6=much/moderately worse; 7=very much worse. Changes based on the GIC were analyzed using a proportional odds model with treatment and baseline GIS scores as covariates considering three categories (better, no change, worse). Better includes “very much better,” “much better,” and “a little better,” and worse includes “a little worse,” “much worse,” and “very much worse.” CaGIC=Caregiver Global Impression of Change. CGIC=Clinician Global Impression of Change. PGIC=Patient Global Impression of Change. Global Impression of Change and Global Impression of Symptom Measures. Patients (≥8 years of age), caregivers, and clinicians completed global impression of change (GIC) measures (patient global impression of change (PGIC), caregiver global impression of change (CaGIC), and clinical global impression of change (CGIC)) and the global impression of symptoms (GIS) measures (patient global impression of symptoms (PGIS), caregiver global impression of symptoms (CaGIS), clinical global impression of symptoms (CGIS)) at randomization (Study Day 1; PGIS only), Week 4, 12, and 24/EOT. The GIC items assessed changes in itch (patient version), scratching (caregiver and clinician versions), and sleep (all versions) since starting the study drug. The GIS items assessed itch (patient version), scratching (caregiver and clinician versions), and sleep (all versions) in the past week. Caregivers and clinicians completed the GIC and GIS for all patients; those patients ≥8 years of age completed the patient version.

[2] = test system: patients with Alagille syndrome (ALGS); experiment: ASSERT: hepatic parameters, biochemical markers and markers of bile acid synthesis; type: in vivo, human
Description: […] Additional secondary efficacy endpoints were as follows: • Change from baseline in pruritus to Month 6 (Weeks 21 to 24) as measured by the Albireo PRO instrument. • Percentage of patients achieving a clinically meaningful decrease in pruritus (pruritis responders) as measured by the ObsRO/PRO instruments. • Change from baseline through Week 24 in patient reported and observer reported itching and scratching severity scores, respectively, for the morning assessment and for the evening assessment; sleep parameters as measured with the Albireo ObsRO/PRO instruments (e.g., tiredness and number of awakenings); and PedsQL subdomain scores. • Assessment of Global Symptom Relief to from baseline to Weeks 4, 12, and 24 as measured by patient, caregiver, and clinician Global Impression of Symptoms GIS (PGIS, CaGIS, CGIS) items. • Change from baseline to Week 24 in xanthomatosis as assessed by the Clinician Xanthoma Scale; serum bile acid levels; serum ALT concentration; and serum AST concentration; gamma-glutamyl transferase concentration; total bilirubin concentration. • Change from baseline in biochemical markers and measures of bile acid synthesis (autotaxin, p-C4, only in patients >10 kg); and total cholesterol concentration.
Biochemical Markers and PK Samples. Blood samples for analysis of clinical chemistry were drawn during Screening Visits 1 and 2, as well as at randomization (Study Day 1), Week 4 to 24/EOT, and Safety Follow-up visits. As outlined in Table 1, total bilirubin, AST, ALT, and gamma glutamyl transferase assessments were included as part of the routine laboratory parameters. Blood samples for autotaxin and p-C4 were drawn at randomization (Study Day 1), Week 12, and Week 24/EOT, only for children with body weight >10 kg. Blood for odevixibat PK assessment was drawn at Week 4, Week 20, and EOT (only for children with body weight >10 kg). Samples were processed and transported to a laboratory per instructions in the laboratory manual.

[3] = test system: patients with Alagille syndrome (ALGS); experiment: Pooled ASSERT and ASSERT-EXT: TEAEs; type: in vivo, human
Experimental: In the completed 24-week ASSERT study, patients with ALGS with history of significant pruritus and elevated serum BAs were randomized 2:1 to once-daily odevixibat 120 μg/kg or placebo, respectively. Patients who completed ASSERT could enter ASSERT-EXT, an ongoing, 72-week open-label extension study in which all patients receive odevixibat 120 μg/kg/day. This pooled analysis included all odevixibat-treated patients from ASSERT and/or ASSERT-EXT and spans from patients' first dose of odevixibat to a data cut-off of Sep. 9, 2022. Assessments over up to 36 weeks of treatment included change in observer-reported scratching scores and sleep parameters, as well as levels of serum BAs, autotaxin (a proposed meditator of pruritus), and 7 alpha-hydroxy-4-cholesten-3-one (C4; a marker of bile acid synthesis). Safety evaluations included assessment of alanine aminotransferase (ALT), total bilirubin, and treatment-emergent adverse events (TEAEs).

[4] = test system: patients with Alagille syndrome (ALGS); experiment: ASSERT pruritus responders: ObsRO scratching score
Description: Treatment with concomitant medications for pruritus was permitted provided the patient was on a stable dosage for ≥4 weeks prior to enrollment that was maintained throughout the study.
Pruritus responders were defined as patients having a ≥1-point decrease in ObsRO scratching score from baseline to weeks 21-24).

[5] = baseline, before treatment, n=35
[6] = baseline, before treatment, patients >10 kg
[7] = week 24, 120 μg/kg/day, patients >10 kg

CCCCC1(CCCC)CN(c2ccccc2)c2cc(SC)c(OCC(=O)N[C@@H](C(=O)N[C@@H](CC)C(=O)O)c3ccc(O)cc3)cc2S(=O)(=O)N1 [odevixibat, 1,1-dioxo-3,3-dibutyl-5-phenyl-7-methylthio-8-(N-{(R)-α-[N-((S)-1-carboxypropyl)carbamoyl]-4-hydroxybenzyl}carbamoylmethoxy)-2,3,4,5-tetrahydro-1,2,5-benzothiadiazepine]
CGIC for scratching, percentage of clinician responses (improved) [1]: 80% | CGIC for sleep, percentage of clinician responses (improved) [1]: 74% | CaGIC for scratching, percentage of caregiver responses (improved pruritus) [1]: 87% and 88% | CaGIC for sleep, percentage of caregiver responses (improved sleep) [1]: 78% | PGIC for itching, percentage of patient responses (improved) ([1]; patients ≥8 years): 80% | PGIC for sleep, percentage of patient responses (improved) ([1]; patients ≥8 years): 70% | odds of improvement in sleep, relative to placebo (CaGIC) ([1]; proportional odds model): nine times higher | odds of improvement versus no change or worsening in scratching, relative to placebo (CaGIC) ([1]; proportional odds model): 15 times | GGT, LS mean (SE) change from baseline to week 24 ([2]; 120 μg/kg/day, n=35): 100 (44) U/L | Serum ALT, LS mean (SE) change from baseline to week 24 ([2]; 120 μg/kg/day, n=35): 66 (14) U/L | Serum AST, LS mean (SE) change from baseline to week 24 ([2]; 120 μg/kg/day, n=35): 54 (15) U/L | Total bilirubin, LS mean (SE) change from baseline to week 24 ([2]; 120 μg/kg/day, n=35): 1 (3) μmol/L | Total cholesterol, LS mean (SE) change from baseline to week 24 ([2]; 120 μg/kg/day, n=35): −1 (1) mmol/L | Autotaxin, Mean (SD) change from baseline to week 24 ([2]; 120 μg/kg/day, patients >10 kg): −414 (439) ng/mL | C4, Mean (SD) change from baseline to week 24 ([2]; 120 μg/kg/day, patients >10 kg): 12 (12) ng/mL | GGT, Mean (SD) at baseline [2, 5]: 366 (211) U/L | Serum ALT, Mean (SD) at baseline [2, 5]: 186 (83) U/L | Serum AST, Mean (SD) at baseline [2, 5]: 170 (81) U/L | Total bilirubin, Mean (SD) at baseline [2, 5]: 52 (43) μmol/L | Total cholesterol, Mean (SD) at baseline [2, 5]: 8 (2) mmol/L | Autotaxin, Mean (SD) at baseline [2, 6]: 1846 (540) ng/mL | C4, Mean (SD) at baseline [2, 6]: 6 (6) ng/mL | patients with post-treatment changes in Total Bilirubin (≥3×BL) concurrently with ALT (≥2×BL) (Hy's Law / drug induced liver injury cases) ([2]; post-baseline, 24 weeks): No patient | GGT, Mean (SD) at week 24 ([2]; week 24, 120 μg/kg/day, n=35): 460 (270) U/L | Serum ALT, Mean (SD) at week 24 ([2]; week 24, 120 μg/kg/day, n=35): 245 (121) U/L | Serum AST, Mean (SD) at week 24 ([2]; week 24, 120 μg/kg/day, n=35): 217 (131) U/L | Total bilirubin, Mean (SD) at week 24 ([2]; week 24, 120 μg/kg/day, n=35): 53 (42) μmol/L | Total cholesterol, Mean (SD) at week 24 ([2]; week 24, 120 μg/kg/day, n=35): 7 (2) mmol/L | Autotaxin, Mean (SD) at week 24 [2, 7]: 1452 (440) ng/mL | C4, Mean (SD) at week 24 [2, 7]: 19 (13) ng/mL | TEAEs that led to study discontinuation [3]: No patient | patients reporting drug-related diarrhea ([3]; 6 of 52): 12% | patients reporting drug-related TEAEs ([3]; 15 of 52): 29% | patients reporting TEAEs ([3]; 43 of 52): 83% | Any TEAE ([3]; n=52): 43 (83) n (%) | Drug-related TEAE: Abdominal pain ([3]; n=52): 2 (4) n (%) | Drug-related TEAE: Abdominal pain upper ([3]; n=52): 2 (4) n (%) | Drug-related TEAE: Diarrhea ([3]; n=52): 6 (12) n (%) | Drug-related TEAE: Vomiting ([3]; n=52): 2 (4) n (%) | Drug-related TEAEs ([3]; n=52): 15 (29) n (%) | Drug-related serious TEAEs ([3]; n=52): 1 (2) n (%) | Serious TEAEs ([3]; n=52): 6 (12) n (%) | Severe TEAEs ([3]; n=52): 7 (14) n (%) | tolerability ([3]; up to 36 weeks): generally well tolerated | Scratching score, Mean (SE) Change From Baseline ([4]; baseline to weeks 21-24): −2.0 (0.1) | Scratching score, Baseline Mean (SE) ([4]; n=28): 2.8 (0.1) | Scratching score, Week 24 Mean (SE) ([4]; weeks 21-24, n=28): 0.9 (0.1)

From patent publication US20240173333A1, “Treating Alagille Syndrome (ALGS)” (priority 2022, published 2024)
